Data as given in patent US12016864B2, “LOX enzyme inhibiting methods and compositions” (ANOVIA BIOSCIENCES, INC., priority 2021, dated 2024).
pIC50: −log10 of the molar value.

The molecules below were run against T1, Recombinant human LOXL3 (lysyl oxidase like 3) (Homo sapiens, UniProt P58215) (assay: LOXL3 inhibition assay, fluorometric (cadaverine / HRP / Amplex Red)). Conditions: recombinant human LOXL3 150 nM; 30 min preincubation at 37° C.; 1 mM cadaverine; read-out: Activity Range LOXL3.
T1 construct: purchased R&D systems
T1 sequence (P58215 26-753): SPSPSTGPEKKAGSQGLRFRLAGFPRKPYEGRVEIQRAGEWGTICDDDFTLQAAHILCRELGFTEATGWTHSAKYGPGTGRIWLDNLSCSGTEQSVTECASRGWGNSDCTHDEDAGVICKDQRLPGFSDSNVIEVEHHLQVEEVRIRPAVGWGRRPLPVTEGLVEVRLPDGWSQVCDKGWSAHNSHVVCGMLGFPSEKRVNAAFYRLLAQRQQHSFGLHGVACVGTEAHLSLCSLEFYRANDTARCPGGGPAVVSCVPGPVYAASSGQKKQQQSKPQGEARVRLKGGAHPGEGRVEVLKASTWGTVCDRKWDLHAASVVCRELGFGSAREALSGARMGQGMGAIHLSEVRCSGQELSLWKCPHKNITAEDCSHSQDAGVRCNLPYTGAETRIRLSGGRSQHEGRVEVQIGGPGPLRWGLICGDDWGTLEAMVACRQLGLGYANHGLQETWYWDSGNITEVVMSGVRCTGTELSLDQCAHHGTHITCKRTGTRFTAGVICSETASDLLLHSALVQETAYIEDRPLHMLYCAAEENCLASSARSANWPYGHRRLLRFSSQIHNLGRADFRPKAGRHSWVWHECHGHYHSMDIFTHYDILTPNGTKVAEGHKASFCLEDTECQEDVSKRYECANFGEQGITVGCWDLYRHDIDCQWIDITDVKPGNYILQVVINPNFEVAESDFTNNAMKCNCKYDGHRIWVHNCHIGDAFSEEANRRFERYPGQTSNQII
Type: biochemical
Description: The ability of compounds to inhibit one or more of the lysyl oxidases LOXL2 and/or LOXL3 was determined using a fluorometric assay. This assay measures the activity of lysyl oxidases by coupling the reaction with horseradish peroxidase-catalyzed […]. The activity assay protocol uses cadaverine as substrate that releases hydrogen peroxide upon transformation by the specific LOX family enzyme present in the sample. Hydrogen peroxide is in turn detected using a red fluorescence substrate for HRP-coupled reactions (Amplex Red Enzyme Assays, Thermo Scientific Fisher). This leads to increase in fluorescence that can be easily detected at Ex/Em=540/590 nm in a fluorescence microplate reader.
Recombinant human LOXL2 (lysyl oxidase like 2) and recombinant human LOXL3 (lysyl oxidase like 3) were purchased from R&D systems and assays were performed in 1.2 M urea, 50 mM sodium borate buffer pH 8.0, and 10 mM CaCl.
5 μl of freshly prepared reaction buffer were delivered to reaction wells. Compounds were resuspended in 100% DMSO at 10 mM and delivered into buffer using acoustic technology (Echo550; nanoliter range). A 3× solution of LOXL2 or LOXL3 in reaction buffer was prepared (“enzyme solution”) and 5 μL of enzyme solution was added into the reaction wells. Buffer only was added to column 1 for no protein control. Reactions were incubated for 30 minutes at 37° C. A 3× mixture of cadaverine, Amplex Red, and HRP (“Substrate/Detection Mix) was prepared and subsequently 5 μL of the mixture added to each reaction well. Progress of reactions was monitored for 60 minutes at 37° C. using Clariostar plate reader (ex 530-12, ems 600-40). For all activity assays, pan-LOX inhibitor CCT365623 (Tang et al, 2017) and LOXL2/LOXL3 inhibitor PAT-1251 (PharmaKea) were included as standards.
For the data analysis, the slope of the linear portion of the progress curve was calculated using Clariostar software. Typical analysis interval was between 8-30 min, but varied between experiments. The background-subtracted signals (No protein wells are considered as background) were converted to % activity relative to DMSO controls. Data was analyzed using GraphPad Prism 4 with “sigmoidal dose-response (variable slope)”; 4 parameters with Hill Slope. Constraints: Bottom=Constant equal to 0. Top=Must be less than 120.

pIC50, ≥ 6.30:
NCc1ccnc(S(=O)(=O)C[C@@H]2C[C@H](c3ccccc3)CN2S(=O)(=O)N2CCOCC2)c1 (racemic) [Example 195, Cis-(2-(((1-(Morpholinosulfonyl)-4-phenylpyrrolidin-2-yl)methyl)sulfonyl)pyridin-4-yl)methanamine 2,2,2-trifluoroacetate]
NCc1ccnc(S(=O)(=O)C[C@@H]2C[C@H](c3ccccc3)CN2S(=O)(=O)N2CCOCC2)c1 (single isomer, unassigned) [Example 195B]
NCc1ccnc(S(=O)(=O)C[C@H]2C[C@@H](c3ccccc3)CN2S(=O)(=O)N2CCOCC2)c1 (single isomer, unassigned) [Example 195A]
NCc1ccnc(S(=O)(=O)C[C@@H]2C[C@H](c3ccccc3)CN2S(=O)(=O)N2CCS(=O)(=O)CC2)c1 [Example 196A, 4-(((2S,4R)-2-(((4-(aminomethyl)pyridin-2-yl)sulfonyl)methyl)-4-phenylpyrrolidin-1-yl)sulfonyl)thiomorpholine 1,1-dioxide 2,2,2-trifluoroacetate]
NCc1ccnc(S(=O)(=O)C[C@@H]2C[C@H](c3ccccc3)CN2S(=O)(=O)N2CCS(=O)(=O)CC2)c1 (racemic) [Example 196, cis-4-((2-(((4-(Aminomethyl)pyridin-2-yl)sulfonyl)methyl)-4-phenylpyrrolidin-1-yl)sulfonyl)thiomorpholine 1,1-dioxide 2,2,2-trifluoroacetate]
NCc1ccnc(S(=O)(=O)C[C@H]2C[C@@H](c3ccccc3)CN2S(=O)(=O)N2CCS(=O)(=O)CC2)c1 [Example 196B, 4-(((2R,4S)-2-(((4-(aminomethyl)pyridin-2-yl)sulfonyl)methyl)-4-phenylpyrrolidin-1-yl)sulfonyl)thiomorpholine 1,1-dioxide 2,2,2-trifluoroacetate]
